Laboratory results published in patent US8153795B2, “Substituted 1-oxa-3,8-diazaspiro[4.5]-decan-2-one-compounds and the use thereof for producing drugs” (Gruenenthal GmbH, priority 2005, dated 2012).

Target: T1, 5-HT transporter (Rattus norvegicus, UniProt P31652)
T1 construct: from tissue; host or cells: rat brain synaptosomes (P2 fraction) from medulla and pons
Assay: 5-HT uptake inhibition in rat brain synaptosomes (medulla and pons), [3H]-5-HT
Assay type: biochemical
Excerpt: a) Method for Determining Noradrenalin and 5-HT Uptake Inhibition:
Synaptosomes from rat brain regions are freshly isolated for in vitro studies, as described in the publication “The isolation of nerve endings from brain” by E. G. Gray and V. P. Whittaker, J. Anatomy 96, pages 79-88, 1962. The corresponding literature description is hereby introduced as a reference and is deemed to be part of the disclosure.
The tissue (hypothalamus for the determination of noradrenalin uptake inhibition and medulla and pons for the determination of 5-HT uptake inhibition) is homogenised in ice-cooled 0.32 M sucrose (100 mg of tissue/1 mL) in a glass homogeniser with Teflon pestle using five complete up and down strokes at 840 revolutions/minute.
The homogenate is centrifuged at 4° C. for 10 minutes at 1000 g. After subsequent centrifugation at 17000 g for 55 minutes, the synaptosomes (P2 fraction) are obtained, which are resuspended in 0.32 M […] (0.5 mL/100 mg of original weight).
The particular uptake is measured in a 96-well microtitre plate. The volume is 250 μl and the incubation proceeds at room temperature (approx. 20-25° C.) under an O2 atmosphere.
The incubation time is 7.5 minutes for [^3H]-NA and 5 minutes for [^3H]-5-HT. The 96 samples are then filtered through a Unifilter GF/B® microtitre plate (Packard) and washed with 200 mL of incubated buffer using a “Brabdel MPXRI-96T Cell-Harvester”. The Unifilter GF/B plate is dried for 1 hour at 55° C. The plate is then sealed with a Back Seal® (Packard) and 35 μl of scintillation fluid are added per well (Ultima Gold®, Packard). After sealing with a top Seal® (Packard) and establishing an equilibrium (around 5 hours), radioactivity is determined in a “Trilux 1450 Microbeta” (Wallac).
The quantity of protein used in the above determination corresponds to the values known from the literature, as for example described in “Protein measurement with the folin phenol reagent”, Lowry et al., J. Biol. Chem., 193, 265-275, 1951.
A detailed description of the method may additionally be found in the literature, for example in M. Ch. Frink, H.-H. Hennies, W. Engelberger, M. Haurand and B. Wilffert (1996) Arzneim.-Forsch./Drug Res. 46 (III), 11, 1029-1036.

T1 sequence (P31652 whole entry): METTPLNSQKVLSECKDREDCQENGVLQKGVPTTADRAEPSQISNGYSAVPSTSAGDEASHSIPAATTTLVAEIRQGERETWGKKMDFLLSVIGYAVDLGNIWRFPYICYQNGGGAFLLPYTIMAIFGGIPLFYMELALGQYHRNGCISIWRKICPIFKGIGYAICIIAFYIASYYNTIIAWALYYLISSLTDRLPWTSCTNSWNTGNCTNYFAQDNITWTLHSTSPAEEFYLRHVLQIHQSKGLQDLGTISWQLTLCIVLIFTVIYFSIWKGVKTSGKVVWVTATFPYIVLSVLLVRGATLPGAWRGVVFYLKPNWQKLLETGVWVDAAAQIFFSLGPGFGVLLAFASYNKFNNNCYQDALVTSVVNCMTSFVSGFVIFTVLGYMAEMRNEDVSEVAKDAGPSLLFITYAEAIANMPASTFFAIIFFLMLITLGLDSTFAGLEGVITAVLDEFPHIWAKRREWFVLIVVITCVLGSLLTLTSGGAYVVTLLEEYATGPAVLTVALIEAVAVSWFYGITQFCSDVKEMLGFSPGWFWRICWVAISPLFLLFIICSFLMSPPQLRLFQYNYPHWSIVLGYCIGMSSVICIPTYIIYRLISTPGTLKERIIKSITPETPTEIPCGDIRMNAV

Compound	inhibition at 10 µM [%]
Cc1ccc(CN2CC3(CCN(C(=S)Nc4c(F)c(F)c(F)c(F)c4F)CC3)OC2=O)cc1 [Example 1, 3-(4-methylbenzyl)-2-oxo-1-oxa-3,8-diazaspiro[4.5]decane-8-carbothioic acid pentafluorophenylamide]	66
O=C1OC2(CCN(C(=S)NCc3ccccc3)CC2)CN1Cc1ccc(C(F)(F)F)cc1 [Example 3, 2-oxo-3-(4-trifluoromethylbenzyl)-1-oxa-3,8-diazaspiro[4.5]decane-8-carbothioic acid benzylamide]	69
Cc1cc(C)cc(CN2CC3(CCN(C(=S)NCC4CCCO4)CC3)OC2=O)c1 (centres unmarked) [Example 4, 3-(3,5-dimethylbenzyl)-2-oxo-1-oxa-3,8-diazaspiro[4.5]decane-8-carbothioic acid (tetrahydrofuran-2-ylmethyl)amide]	76
O=C1OC2(CCN(C(=S)NCc3ccccc3)CC2)CN1Cc1ccc(F)c(F)c1 [Example 11, 3-(3,4-difluorobenzyl)-2-oxo-1-oxa-3,8-diazaspiro[4.5]decane-8-carbothioic acid benzylamide]	58
CC(NC(=S)N1CCC2(CC1)CN(Cc1ccccc1-c1ccccc1)C(=O)O2)c1ccccc1 (centres unmarked) [Example 12, 3-biphenyl-2-ylmethyl-2-oxo-1-oxa-3,8-diazaspiro[4.5]decane-8-carbothioic acid (1-phenylethyl)amide]	60
O=C1OC2(CCN(C(=S)NCc3ccccc3)CC2)CN1Cc1cccc(Br)c1 [Example 16, 3-(3-bromobenzyl)-2-oxo-1-oxa-3,8-diazaspiro[4.5]decane-8-carbothioic acid benzylamide]	54
COc1ccc([N+](=O)[O-])cc1CN1CC2(CCN(C(=S)NCC3CCCCC3)CC2)OC1=O [Example 21, 3-(2-methoxy-5-nitrobenzyl)-2-oxo-1-oxa-3,8-diazaspiro[4.5]decane-8-carbothioic acid cyclohexylmethylamide]	55
N#Cc1cccc(CN2CC3(CCN(C(=S)NCc4ccc(Cl)cc4)CC3)OC2=O)c1 [Example 22, 3-(3-cyanobenzyl)-2-oxo-1-oxa-3,8-diazaspiro[4.5]decane-8-carbothioic acid 4-chlorobenzylamide]	48
COc1ccc([N+](=O)[O-])cc1CN1CC2(CCN(C(=S)NCc3ccccc3)CC2)OC1=O [Example 23, 3-(2-methoxy-5-nitrobenzyl)-2-oxo-1-oxa-3,8-diazaspiro[4.5]decane-8-carbothioic acid benzylamide]	60
O=C(Nc1cc(Cl)ccc1Cl)N1CCC2(CC1)CN(Cc1ccccc1-c1ccccc1)C(=O)O2 [Example 25, 3-biphenyl-2-ylmethyl-2-oxo-1-oxa-3,8-diazaspiro[4.5]decane-8-carboxylic acid (2,5-dichlorophenyl)amide]	53
COc1ccc([N+](=O)[O-])cc1CN1CC2(CCN(C(=O)Nc3cc(F)ccc3F)CC2)OC1=O [Example 26, 3-(2-methoxy-5-nitrobenzyl)-2-oxo-1-oxa-3,8-diazaspiro[4.5]decane-8-carboxylic acid (2,5-difluorophenyl)amide]	70
CCOC(=O)c1ccc(NC(=O)N2CCC3(CC2)CN(Cc2ccc4ccccc4c2)C(=O)O3)cc1 [Example 30, 4-[(3-naphthalen-2-ylmethyl-2-oxo-1-oxa-3,8-diazaspiro[4.5]decane-8-carbonyl)amino]benzoic acid ethyl ester]	65
N#Cc1ccccc1CN1CC2(CCN(C(=O)Nc3cc(F)ccc3F)CC2)OC1=O [Example 32, 3-(2-cyanobenzyl)-2-oxo-1-oxa-3,8-diazaspiro[4.5]decane-8-carboxylic acid (2,5-difluorophenyl)amide]	56
N#Cc1cccc(NC(=O)N2CCC3(CC2)CN(Cc2ccc(SC(F)(F)F)cc2)C(=O)O3)c1 [Example 38, 2-oxo-3-(4-trifluoromethylsulfanylbenzyl)-1-oxa-3,8-diazaspiro[4.5]decane-8-carboxylic acid (3-cyanophenyl)amide]	52
Cc1ccc(NC(=O)N2CCC3(CC2)CN(Cc2ccc(SC(F)(F)F)cc2)C(=O)O3)cc1[N+](=O)[O-] [Example 40, 2-oxo-3-(4-trifluoromethylsulfanylbenzyl)-1-oxa-3,8-diazaspiro[4.5]decane-8-carboxylic acid (4-methyl-3-nitrophenyl)amide]	54
CCCCOc1ccc(NC(=O)N2CCC3(CC2)CN(Cc2ccc(I)cc2)C(=O)O3)cc1 [Example 41, 3-(4-iodobenzyl)-2-oxo-1-oxa-3,8-diazaspiro[4.5]decane-8-carboxylic acid (4-butoxyphenyl)amide]	49
CC(NC(=O)N1CCC2(CC1)CN(Cc1ccccc1)C(=O)O2)c1ccccc1 (centres unmarked) [Example 43, 3-benzyl-2-oxo-1-oxa-3,8-diazaspiro[4.5]decane-8-carboxylic acid (1-phenylethyl)amide]	49
Cc1ccc(CN2CC3(CCN(C(=O)NCCc4ccccc4)CC3)OC2=O)cc1 [Example 45, 3-(4-methylbenzyl)-2-oxo-1-oxa-3,8-diazaspiro[4.5]decane-8-carboxylic acid phenethylamide]	51
COc1cccc(NC(=O)N2CCC3(CC2)CN(Cc2ccccc2C(F)(F)F)C(=O)O3)c1 [Example 46, 2-oxo-3-(2-trifluoromethylbenzyl)-1-oxa-3,8-diazaspiro[4.5]decane-8-carboxylic acid (3-methoxyphenyl)amide]	43
COc1ccc(NC(=O)N2CCC3(CC2)CN(Cc2ccc(C#N)cc2)C(=O)O3)cc1 [Example 47, 3-(4-cyanobenzyl)-2-oxo-1-oxa-3,8-diazaspiro[4.5]decane-8-carboxylic acid (4-methoxyphenyl)amide]	49
CC(NC(=O)N1CCC2(CC1)CN(Cc1ccc(C(F)(F)F)cc1)C(=O)O2)c1cccc2ccccc12 (centres unmarked) [Example 48, 2-oxo-3-(4-trifluoromethylbenzyl)-1-oxa-3,8-diazaspiro[4.5]decane-8-carboxylic acid (1-naphthalen-1-yl-ethyl)amide]	43
Cc1ccc(NC(=O)N2CCC3(CC2)CN(Cc2ccc(I)cc2)C(=O)O3)cc1[N+](=O)[O-] [Example 50, 3-(4-iodobenzyl)-2-oxo-1-oxa-3,8-diazaspiro[4.5]decane-8-carboxylic acid (4-methyl-3-nitrophenyl)amide]	64
COc1ccc([N+](=O)[O-])cc1CN1CC2(CCN(C(=O)Nc3cccc(C#N)c3)CC2)OC1=O [Example 51, 3-(2-methoxy-5-nitrobenzyl)-2-oxo-1-oxa-3,8-diazaspiro[4.5]decane-8-carboxylic acid (3-cyanophenyl)amide]	89
CC(NC(=O)N1CCC2(CC1)CN(Cc1ccccc1C(F)(F)F)C(=O)O2)c1cccc2ccccc12 (centres unmarked) [Example 54, 2-oxo-3-(2-trifluoromethylbenzyl)-1-oxa-3,8-diazaspiro[4.5]decane-8-carboxylic acid (1-naphthalen-1-yl-ethyl)amide]	75
COc1ccc(OC)c(NC(=O)N2CCC3(CC2)CN(Cc2ccc4ccccc4c2)C(=O)O3)c1 [Example 55, 3-naphthalen-2-ylmethyl-2-oxo-1-oxa-3,8-diazaspiro[4.5]decane-8-carboxylic acid (2,5-dimethoxyphenyl)amide]	61
CC(=O)c1cccc(NC(=O)N2CCC3(CC2)CN(Cc2ccc(C#N)cc2)C(=O)O3)c1 [Example 56, 3-(4-cyanobenzyl)-2-oxo-1-oxa-3,8-diazaspiro[4.5]decane-8-carboxylic acid (3-acetylphenyl)amide]	60
COc1ccc(Cl)cc1NC(=O)N1CCC2(CC1)CN(Cc1ccc(C#N)cc1)C(=O)O2 [Example 58, 3-(4-cyanobenzyl)-2-oxo-1-oxa-3,8-diazaspiro[4.5]decane-8-carboxylic acid (5-chloro-2-methoxyphenyl)amide]	49
CCOC(=O)c1cccc(NC(=O)N2CCC3(CC2)CN(Cc2ccccc2C(F)(F)F)C(=O)O3)c1 [Example 59, 3-{[2-oxo-3-(2-trifluoromethylbenzyl)-1-oxa-3,8-diazaspiro[4.5]decane-8-carbonyl]amino}benzoic acid ethyl ester]	47
CC(C)(C)OC(=O)NC(Cc1c[nH]c2ccccc12)C(=O)N1CCC2(CC1)CN(Cc1cccc(Br)c1)C(=O)O2 (centres unmarked) [Example 66, [2-[3-(3-bromobenzyl)-2-oxo-1-oxa-3,8-diazaspiro[4.5]dec-8-yl]-1-(1H-indol-3-ylmethyl)-2-oxoethyl]carbamic acid tert-butyl ester]	53
